Experimental data published in patent publication US20260206809A1, “NATURAL SWEETENER COMPOSITIONS CONTAINING ALKYL LACTATES AND USES THEREOF” (Firmenich SA, priority 2022, published 2026).

Test: Solubility limit of the natural sweetener in pure solvents (estimated)
Format: physicochemical
Conditions: for Solubility limit in ethyl lactate: pure ethyl lactate; for Solubility limit in glycerol: pure glycerol
Experimental: As used herein, “solubility at 25° C.” or “solubility at RT” is meant to represent the thermodynamic, equilibrium solubility of a natural sweetener at 25° C. or at RT. […] Subsequently, even once the temperature is brought back to a lower temperature, for example to 25° C., the solid compound may remain in solution for a certain amount of time while being supersaturated. However, this is an apparent solubility due to a non-equilibrium, metastable state with limited shelf-life stability, and therefore is distinguished from thermodynamic solubility at equilibrium. Thermodynamic solubility can, for example, be determined with the so-called shake flask method at a controlled temperature. Alternatively, it can be determined by slowly heating the compound and recording the solubilization temperature after complete dissolution.

Solubility limit in ethyl lactate [%]	Solubility limit in glycerol	Molecule
< 0.7	about 9 % wt.	C=C1C[C@@]23CC[C@H]4[C@@](C)(CCC[C@@]4(C)C(=O)O[C@@H]4O[C@H](CO)[C@@H](O)[C@H](O[C@@H]5O[C@H](CO)[C@@H](O)[C@H](O)[C@H]5O)[C@H]4O[C@@H]4O[C@H](CO)[C@@H](O)[C@H](O)[C@H]4O)[C@@H]2CC[C@]1(O[C@@H]1O[C@H](CO)[C@@H](O)[C@H](O[C@@H]2O[C@H](CO)[C@@H](O)[C@H](O)[C@H]2O)[C@H]1O[C@@H]1O[C@H](CO)[C@@H](O)[C@H](O)[C@H]1O)C3 [Reb M (95%), Rebaudioside M]
< 0.3	about 2 % wt.	C=C1C[C@@]23CC[C@H]4[C@@](C)(CCC[C@@]4(C)C(=O)O[C@@H]4O[C@H](CO)[C@@H](O)[C@H](O)[C@H]4O)[C@@H]2CC[C@]1(O[C@@H]1O[C@H](CO)[C@@H](O)[C@H](O[C@@H]2O[C@H](CO)[C@@H](O)[C@H](O)[C@H]2O)[C@H]1O[C@@H]1O[C@H](CO)[C@@H](O)[C@H](O)[C@H]1O)C3 [Reb A (99.5%), Rebaudioside A]
< 1	about 16 % wt.	Rebaudioside B [Reb B (95%)]
